Source: US5264429A, “2-spirocyclopropyl cephalosporin sulfone derivatives” (SynPhar Laboratories, Inc., priority 1991, dated 1993)
Where two headings read alike, the source gives them in different places.

Legend:
[1] = target: T1, human leukocyte elastase (HLE) (Homo sapiens, UniProt P08246); experiment: Enzyme Assay for Inhibition of HLE; assay type: biochemical; details: HLE 10 nM, pH 7.6, 10 minute preincubation, 30° C.
T1 construct: from tissue; host or cells: human white blood cells
T1 sequence (P08246 30-247 limits assumed): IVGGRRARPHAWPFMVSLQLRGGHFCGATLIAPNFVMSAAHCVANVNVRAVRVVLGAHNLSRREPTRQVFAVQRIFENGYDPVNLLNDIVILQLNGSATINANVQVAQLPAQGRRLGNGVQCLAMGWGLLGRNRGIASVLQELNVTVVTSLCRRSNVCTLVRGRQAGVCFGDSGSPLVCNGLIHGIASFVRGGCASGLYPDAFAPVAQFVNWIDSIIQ
Procedure: Enzyme Assay for Inhibition of HLE:
Enzyme: Purified elastase from human white blood cells.
Substrate: MeO-succinyl-L-alanyl-L-alanyl-L-prolyl-L-valine-p-nitro-anilide(NA).
Reaction Mixture: 10 mM phosphate buffer (pH 7.6), 500 mM NaCl, 10% dimethylsulfoxide (DMSO), 0.35 mM substrate.
The enzyme activity was determined by monitoring the increase in absorbance at 410 nm caused by the hydrolysis of chromogenic substrates. Inhibition of enzyme by the compounds described were determined after a 10 minute preincubation with the enzyme in reaction mixture minus substrate. Reaction was initiated by the addition of substrate. The concentration of human leukocyte elastase used for assay was at 10 nM.
HLE, CTG, PPE and CTD were tested at 30° C. and the others were […]

cathepsin D = target: T2, cathepsin D (Bos taurus, UniProt P80209); experiment: Inhibition of cathepsin D (CTD); assay type: biochemical, bovine; details: cathepsin D, pH 3.2, 10 minute preincubation, 30° C.; read-out: IC50 CTD
T2 construct: from tissue; host or cells: bovine spleen
Procedure: Except for Cathepsin D, the enzyme activities were determined by monitoring the increase in absorbance at 410 nm caused by the hydrolysis of chromogenic substrates. The activity of Cathepsin D was determined by monitoring the absorbance of 5% trichloroacetic acid-soluble material at 280 nm. Inhibition of enzymes by the compounds described were determined after a 10 minute preincubation with enzymes in reaction mixtures minus substrate. Reactions were initiated by the addition of substrates. […] Cathepsin D was used at the concentration that produced approximately 0.15 O.D. increase per 20 min at 280 nm under the standard conditions. All other proteases were assayed at the concentrations that produced approximately 0.1 O.D. change per minute at 410 nm under the standard conditions.

plasmin = target: T3, plasmin (Homo sapiens, UniProt P00747); experiment: Inhibition of plasmin (PTH); assay type: biochemical; details: pH 8.9, 10 minute preincubation, 22° C.
T3 construct: from tissue; host or cells: human plasma
Procedure: (§1) HLE, CTG, PPE and CTD were tested at 30° C. and the others were
(§2) TRY, trypsin; THR, thrombin; PTH, plasmin; CTC, cathepsin C; ATM,
Enzyme: Purified plasmin from human plasma Substrate: Tosyl-glyclyl-L-prolyl-L-lysine-pNA acetate
Reaction mixture: 50 mM Tris-HCl buffer (pH 8.9), 500 mM NaCl, 5% DMSO, 0.5 mM Substrate.
(§3) Except for Cathepsin D, the enzyme activities were determined by monitoring the increase in absorbance at 410 nm caused by the hydrolysis of chromogenic substrates. The activity of Cathepsin D was determined by monitoring the absorbance of 5% trichloroacetic acid-soluble material at 280 nm.
(§4) Inhibition of enzymes by the compounds described were determined after a 10 minute preincubation with enzymes in reaction mixtures minus substrate. Reactions were initiated by the addition of substrates. The concentration used for assays were porcine pancreatic elastase at 240 nM and human Cathepsin G at 50 nM. Cathepsin D was used at the concentration that produced approximately 0.15 O.D. increase per 20 min at 280 nm under the standard conditions. All other proteases were assayed at the concentrations that produced approximately 0.1 O.D. change per minute at 410 nm under the standard conditions.

aminopeptidase M = target: T4, aminopeptidase M (Sus scrofa, UniProt P15145); experiment: Inhibition of aminopeptidase M (ATM); assay type: biochemical, porcine
T4 construct: from tissue; host or cells: porcine kidney
T4 sequence (P15145 1-963): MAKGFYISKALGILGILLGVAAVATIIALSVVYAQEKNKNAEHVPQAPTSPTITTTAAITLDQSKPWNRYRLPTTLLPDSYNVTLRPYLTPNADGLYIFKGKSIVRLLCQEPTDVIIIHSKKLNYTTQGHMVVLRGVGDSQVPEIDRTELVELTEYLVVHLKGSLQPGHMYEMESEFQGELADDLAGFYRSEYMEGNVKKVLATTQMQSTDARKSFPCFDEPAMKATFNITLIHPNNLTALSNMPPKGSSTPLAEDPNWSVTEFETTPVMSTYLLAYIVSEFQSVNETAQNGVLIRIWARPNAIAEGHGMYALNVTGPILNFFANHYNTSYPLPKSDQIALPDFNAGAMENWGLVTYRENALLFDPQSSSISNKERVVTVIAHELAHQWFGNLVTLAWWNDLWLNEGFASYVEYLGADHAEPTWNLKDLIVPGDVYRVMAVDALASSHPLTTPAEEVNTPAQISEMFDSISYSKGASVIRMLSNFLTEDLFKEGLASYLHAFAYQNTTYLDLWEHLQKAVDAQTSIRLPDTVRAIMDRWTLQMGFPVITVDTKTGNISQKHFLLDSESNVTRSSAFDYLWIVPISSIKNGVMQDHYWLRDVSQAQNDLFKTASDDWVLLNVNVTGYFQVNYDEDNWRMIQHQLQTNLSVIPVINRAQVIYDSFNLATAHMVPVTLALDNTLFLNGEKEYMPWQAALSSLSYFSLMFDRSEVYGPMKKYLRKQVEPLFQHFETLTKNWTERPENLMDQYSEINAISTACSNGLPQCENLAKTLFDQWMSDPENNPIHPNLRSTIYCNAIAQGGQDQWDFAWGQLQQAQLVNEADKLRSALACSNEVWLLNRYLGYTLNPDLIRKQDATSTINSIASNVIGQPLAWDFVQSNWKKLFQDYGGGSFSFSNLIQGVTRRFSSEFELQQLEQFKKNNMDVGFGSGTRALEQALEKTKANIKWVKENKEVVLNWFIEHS
Procedure: as §1, §2
aminopeptidase M; CTG, cathespin G; CTD, cathespin D; PPE, porcine
Enzyme: Purified aminopeptidase M from porcine kidney
Reaction Mixture: 50 mM Tricine buffer (pH 7.5), 500 mM NaCl, 10% DMSO, 2.0 mM Substrate.
as §3, §4

trypsin = target: T5, trypsin (Bos taurus, UniProt P00760); experiment: Inhibition of trypsin (TRY); assay type: biochemical, bovine
T5 construct: from tissue; host or cells: bovine pancreas
T5 sequence (P00760 24-246): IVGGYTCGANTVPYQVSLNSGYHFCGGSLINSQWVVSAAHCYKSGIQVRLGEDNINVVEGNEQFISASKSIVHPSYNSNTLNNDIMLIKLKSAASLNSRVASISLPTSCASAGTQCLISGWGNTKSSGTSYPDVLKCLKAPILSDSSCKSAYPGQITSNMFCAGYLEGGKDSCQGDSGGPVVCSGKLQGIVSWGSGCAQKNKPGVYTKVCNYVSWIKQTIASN

[2] = aminopeptidase M, pH 7.5, 10 minute preincubation, 22° C., read-out: IC50 ATM
[3] = trypsin, pH 8.8, 10 minute preincubation, 22° C., read-out: IC50 TRY (converted)

T3 sequence (P00747 581-810 limits assumed): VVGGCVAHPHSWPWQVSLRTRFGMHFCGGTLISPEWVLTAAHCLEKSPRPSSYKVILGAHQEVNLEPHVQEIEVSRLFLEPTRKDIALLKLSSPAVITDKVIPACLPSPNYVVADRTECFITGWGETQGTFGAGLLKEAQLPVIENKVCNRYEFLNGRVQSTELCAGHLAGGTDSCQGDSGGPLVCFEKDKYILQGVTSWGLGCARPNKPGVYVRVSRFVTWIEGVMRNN
T3 sequence (P00747 97-580 partner limits assumed): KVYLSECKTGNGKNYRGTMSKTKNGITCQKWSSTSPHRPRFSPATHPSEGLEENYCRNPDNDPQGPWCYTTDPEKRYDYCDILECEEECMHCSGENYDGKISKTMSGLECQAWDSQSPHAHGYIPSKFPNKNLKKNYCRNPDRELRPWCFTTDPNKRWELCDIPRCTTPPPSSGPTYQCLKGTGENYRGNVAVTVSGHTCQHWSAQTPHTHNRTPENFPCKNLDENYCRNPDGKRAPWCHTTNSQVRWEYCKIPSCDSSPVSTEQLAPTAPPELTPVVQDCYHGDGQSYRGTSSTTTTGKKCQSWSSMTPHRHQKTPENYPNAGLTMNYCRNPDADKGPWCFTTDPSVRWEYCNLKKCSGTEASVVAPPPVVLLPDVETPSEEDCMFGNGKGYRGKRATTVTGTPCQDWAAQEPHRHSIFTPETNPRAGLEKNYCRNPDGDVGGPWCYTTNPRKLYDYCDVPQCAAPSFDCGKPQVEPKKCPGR
T2 sequence (P80209 45-390): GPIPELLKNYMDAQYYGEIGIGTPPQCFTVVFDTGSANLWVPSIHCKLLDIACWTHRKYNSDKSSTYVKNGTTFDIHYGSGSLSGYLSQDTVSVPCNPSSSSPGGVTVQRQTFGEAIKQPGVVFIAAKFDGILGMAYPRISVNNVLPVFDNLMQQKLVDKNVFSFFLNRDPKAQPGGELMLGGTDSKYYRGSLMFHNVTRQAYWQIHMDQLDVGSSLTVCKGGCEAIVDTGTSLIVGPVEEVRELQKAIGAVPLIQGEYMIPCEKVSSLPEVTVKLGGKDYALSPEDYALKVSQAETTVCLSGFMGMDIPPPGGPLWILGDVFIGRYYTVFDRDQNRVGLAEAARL

IC50 [1] | IC50 (cathepsin D) | IC50 (plasmin) | IC50 (aminopeptidase M; [2]) | IC50 (trypsin; [3]) | IC50 (aminopeptidase M) | IC50 (trypsin) | Structure (SMILES)
0.00547 µM | > 10 µM | > 10 µM | > 10 µM | > 10 µM |  |  | CCO[C@H]1C(=O)N2C(C(=O)OCC(Cl)(Cl)Cl)=C(C)C3(CC3(c3ccccc3)c3ccccc3)S(=O)(=O)[C@H]12 (stereo partly drawn) [Example 7, 2,2,2-Trichloroethyl-7α-ethoxy-2-spiro(2',2'-diphenyl)cyclo-propyl-3-methyl-3-cephem-4-carboxylate-1,1-dioxide]
0.0447 µM | > 9.97 µM | > 40 µM |  | > 35.9 µM | > 40 µM |  | CO[C@H]1C(=O)N2C(C(=O)N3CCCC3)=C(C)C3(CC3(c3ccccc3)c3ccccc3)S(=O)(=O)[C@H]12 (stereo partly drawn) [Example 10, 7α-Methoxy-2-spiro (2',2'-diphenyl)cyclopropyl-3-methyl-3-cephem-4-pyrrolidine carboxamide-1,1-dioxide]
0.00438 µM | > 9.98 µM | 1.3 µM |  | 0.648 µM | > 9.98 µM |  | CO[C@H]1C(=O)N2C(C(=O)OCC(Cl)(Cl)Cl)=C(C)C3(CC3(c3ccccc3)c3ccccc3)S(=O)(=O)[C@H]12 (stereo partly drawn) [Example 8, 2,2,2-Trichloroethyl-7α-methoxy-2-spiro(2',2'-diphenyl) cyclopropyl-3-methyl-3-cephem-4-carboxylate-1,1-dioxide]
0.00475 µM | > 50 µM | 3.61 µM | > 60 µM | > 60 µM |  |  | CC1=C(C(=O)OC(c2ccccc2)c2ccccc2)N2C(=O)[C@H](Cl)[C@H]2S(=O)(=O)C12CC2(c1ccccc1)c1ccccc1 (single isomer, unassigned) [Example 1, Benzhydryl 7α-chloro-2-spiro(2',2'-diphenyl) cyclopropyl-3-methyl-3-cephem-4-carboxylate-1,1-dioxide]
0.00496 µM | > 50 µM | 5.51 µM | > 40 µM | > 40 µM |  |  | CC1=C(C(=O)OC(C)(C)C)N2C(=O)[C@H](Br)[C@H]2S(=O)(=O)C12CC2(c1ccccc1)c1ccccc1 (stereo partly drawn) [Example 3, t-Butyl 7α-bromo-2-spiro(2',2'-diphenyl) cyclopropyl-3-methyl-3-cephem 4-carboxylate-1,1-dioxide]
0.0336 µM | > 50 µM | 3.21 µM | > 40 µM | > 37 µM |  |  | CC1=C(C(=O)OC(c2ccccc2)c2ccccc2)N2C(=O)[C@H](Br)[C@H]2S(=O)(=O)C12CC2(c1ccccc1)c1ccccc1 (single isomer, unassigned) [Example 2, benzhydryl 7α-bromo-2-spiro(2', 2'-diphenyl) cyclopropyl-3-methyl-3-cephem-4-carboxylate-1,1-dioxide]
0.00507 µM | > 50 µM | 3.19 µM |  |  | > 40 µM | > 40 µM | CC1=C(C(=O)OC(c2ccccc2)c2ccccc2)N2C(=O)[C@H](Br)[C@H]2S(=O)(=O)C12CC2(c1ccc(F)cc1)c1ccc(F)cc1 (single isomer, unassigned) [Example 13, Benzhydryl 7α-bromo-2-spiro[2',2'-(4',4'-difluoro)diphenyl] cyclopropyl-3-methyl-3-cephem-4-carboxylate-1,1-dioxide]
0.00473 µM | > 46.6 µM | 5.5 µM |  | 0.147 µM | > 40 µM |  | CC1=C(C(=O)OC(c2ccccc2)c2ccccc2)N2C(=O)[C@H](Br)[C@H]2S(=O)(=O)C12CC2(C)c1ccccc1 (stereo partly drawn) [Example 13 (2), Benzhydryl 7α-bromo-2-spiro(2'-phenyl-2'-methyl) cyclopropyl-3-methyl-3-cephem-4-carboxylate-1,1-dioxide]
0.0107 µM | > 9.77 µM | > 39 µM | > 9.77 µM | > 39 µM |  |  | CC1=C(C(=O)N2CCCC2)N2C(=O)[C@H](Br)[C@H]2S(=O)(=O)C12CC2(c1ccccc1)c1ccccc1 (stereo partly drawn) [Example 6, 7α Bromo-2-spiro(2',2'-diphenyl)cyclopropyl-3-methyl-3-cephem-4-pyrrolidine carboxamide-1,1-dioxide]
0.0644 µM | > 50 µM | 11 µM |  | 0.58 µM | > 40 µM |  | CCOC(=O)C1CC12C(C)=C(C(=O)OC(c1ccccc1)c1ccccc1)N1C(=O)[C@H](Br)[C@H]1S2(=O)=O (stereo partly drawn) [Example 13 (1), Benzhydryl 7α-bromo-2-spiro(2'-ethoxycarbonyl)cyclopropyl-3-methyl-3-cephem-4-carboxylate-1,1-dioxide]
0.0101 µM | > 46.2 µM | 2.21 µM |  |  | > 55.3 µM | 55.3 µM | CC1=C(C(=O)OC(c2ccccc2)c2ccccc2)N2C(=O)[C@H](Br)[C@H]2S(=O)(=O)C12CC2(c1ccc(Cl)cc1)c1ccc(Cl)cc1 (single isomer, unassigned) [Example 12, Benzhydryl 7α-bromo-2-spiro [2',2'-(4',4'-dichloro)diphenyl]cyclopropyl-3-methyl-3-cephem-4-carboxylate-1,1-dioxide]
0.00363 µM | > 8.35 µM | 8.8 µM |  |  | > 10 µM | > 10 µM | CO[C@H]1C(=O)N2C(C(=O)OC(c3ccccc3)c3ccccc3)=C(C)C3(CC3(c3ccccc3)c3ccccc3)S(=O)(=O)[C@H]12 (stereo partly drawn) [Example 9, Benzhydryl 7α-methoxy-2-spiro (2',2'-diphenyl) cyclopropyl-3-methyl-3-cephem-4-carboxylate-1,1-dioxide]
